Calls of active or inactive are those of the source. The calls are words filed in the database; no cut-off is given here.
How the values were obtained:
Assay type in all cases: functional, cell-based
RAW264.7 [1] = assay: Inhibition of iNOS mRNA expression in LPS-stimulated mouse RAW264.7 cells at 0.1 to 20 ug/mL by RT-PCR analysis
RAW264.7 [2] = assay: Inhibition of iNOS mRNA expression in IFN-gamma-stimulated mouse RAW264.7 cells at 0.1 to 20 ug/mL by RT-PCR analysis
RAW264.7 [3] = assay: Antiinflammatory activity in IFN-gamma-stimulated mouse RAW264.7 cells assessed as inhibition of nitric oxide production after 18 hrs by Griess reagent-based ELISA
RAW264.7 [4] = assay: Antiinflammatory activity in LPS-stimulated mouse RAW264.7 cells assessed as inhibition of nitric oxide production after 18 hrs by Griess reagent-based ELISA
RAW264.7 [5] = assay: Antiinflammatory activity in LPS-stimulated mouse RAW264.7 cells assessed as inhibition of nitric oxide production at 200 ug/mL after 18 hrs by Griess reagent-based ELISA
RAW264.7 [6] = assay: Antiinflammatory activity in IFN-gamma-stimulated mouse RAW264.7 cells assessed as inhibition of nitric oxide production at 200 ug/mL after 18 hrs by Griess reagent-based ELISA

| SMILES | inhibition (RAW264.7 [1]) | inhibition (RAW264.7 [2]) | inhibition (RAW264.7 [3]) | inhibition (RAW264.7 [4]) | inhibition (RAW264.7 [5]) | inhibition (RAW264.7 [6]) |
| --- | --- | --- | --- | --- | --- | --- |
| C=C(C)C(OC(=O)/C=C/c1ccc(OC(C)=O)cc1)C1C/C(=C/CO[C@@H]2O[C@H](COC(C)=O)[C@@H](OC(C)=O)[C@H](OC(C)=O)[C@H]2OC(C)=O)C(=O)O1 (stereo partly specified) | Active | Active | Dose-dependent effect | Dose-dependent effect |  |  |
| C=C(C)C(OC(=O)/C=C/c1ccc(O)cc1)C1C/C(=C/CO[C@@H]2O[C@H](CO)[C@@H](O)[C@H](O)[C@H]2O)C(=O)O1 (stereo partly specified) |  |  |  |  | inactive | inactive |
